Experimental data reported in patent publication US20240190872A1, “FABI INHIBITORS FOR GRAM-NEGATIVE PATHOGENS” (THE BOARD OF TRUSTEES OF THE UNIVERSITY OF ILLINOIS, priority 2021, published 2024).
≈ marks a conversion by molar mass, not a printed value.

Columns and labels:
A. baumannii FabI = A. baumannii FabI (Acinetobacter baumannii, UniProt D0CAD5); test: biochemical
Description: (§1) Mode of Action. To probe the effects of varying ring systems and amine placement on FabI target engagement, the apparent inhibition constants (Ki^app) for select compounds were determined using purified FabI. The goal of these studies was two-fold, to comparatively assess fabimycin, Debio-1452-NH3, and Debio-1452, and to also assess differential activity against the E. coli and A. baumannii versions of FabI. FabI from E. coli and A. baumannii were recombinantly expressed and purified, and the ability for each compound to inhibit the activity of these enzymes was evaluated using a standard FabI enzyme assay.
In vitro FabI inhibition assay. NADH (Sigma-Aldrich, Cat# N8129) and crotonoyl-CoA (Sigma-Aldrich, Cat# 28007) were both diluted into activity buffer [100 mM potassium glutamate (pH 7.8)], and working solution was dispensed into two columns of round-bottom 96-well plate (330 μL per well). Inhibitors, dissolved in DMSO at 200× final concentration, were added to each well via multichannel pipette (2.48 μL per well). After thorough mixing, this mixture was transferred to UV-transparent plate (UV-STAR half-area 96-well plate, Greiner Bio-One, Cat#675801, 100 μL per well, three technical replicates per inhibitor concentration). Plate was placed in plate-reader (SpectraMax 190, Molecular Devices) under temperature control (25° C.), and temperature was allowed to equilibrate. Fresh aliquot of enzyme from −80° C. was thawed on ice and diluted in activity buffer. Enzyme working solution was added to plate (50 μL per well, 20 nM enzyme final). After shaking for 5 s, reaction progress was monitored by absorbance at 340 nm every 15 s for 90 min. Linear portion of reaction progress curve was fit using plate-reader software (SoftMax Pro 7.0). Percent activity was calculated relative to DMSO-only and no-enzyme controls in each plate. Percent activity curves were fit to Morrison's quadratic using Graphpad Prism 6.0 to obtain apparent Ki.

E. coli FabI = E. coli FabI (Escherichia coli (strain K12), UniProt P0AEK4); test: In vitro FabI inhibition assay; type: biochemical
Description: as §1
In vitro FabI inhibition assay. NADH (Sigma-Aldrich, Cat# N8129) and crotonoyl-CoA (Sigma-Aldrich, Cat# 28007) were both diluted into activity buffer [100 mM potassium glutamate (pH 7.8)], and working solution was dispensed into two columns of round-bottom 96-well plate (330 μL per well). […] Plate was placed in plate-reader (SpectraMax 190, Molecular Devices) under temperature control (25° C.), and temperature was allowed to equilibrate. […] After shaking for 5 s, reaction progress was monitored by absorbance at 340 nm every 15 s for 90 min. Linear portion of reaction progress curve was fit using plate-reader software (SoftMax Pro 7.0). Percent activity was calculated relative to DMSO-only and no-enzyme controls in each plate. […]

H. sapiens HFF-1 = test: In-vitro cytotoxicity; type: cell-based
H. sapiens A549 = test: In-vitro cytotoxicity; type: cell-based
HERG = HERG (Homo sapiens (Human), UniProt Q12809); test: cell-based
Plasma protein binding [1] = details: mouse, plasma
Plasma protein binding [2] = details: human, plasma
S. aureus ATCC 29213 = test: Antimicrobial susceptibility test (MIC), micro-dilution broth; type: cell-based; details: S. aureus ATCC 29213
Procedure, shortened: (§2)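 CLSI micro-dilution broth method in cation-adjusted Mueller-Hinton broth, in biological triplicate; human serum (pooled, filtered) was also used.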

E. coli ΔtolC (JW5503) = type: cell-based; details: efflux deficient E. coli ΔtolC
Procedure, shortened: (§3)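 MICs by CLSI broth microdilution in cation-adjusted Mueller-Hinton broth, performed in biological triplicate. Strains: efflux-deficient E. coli ΔtolC (JW5503, KEIO collection) and K. pneumoniae BAA-2472 (ATCC).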

E. coli MG1655 = test: Antimicrobial susceptibility test (MIC); type: cell-based
Procedure, shortened: as §2

K. pneumoniae BAA 2472 = test: microbe, parasite or virus in culture; type: cell-based
Procedure, shortened: as §3

A. baumannii AR 0033 = test: microbe, parasite or virus in culture; type: cell-based
Procedure, shortened: (§4)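 Bacteria were grown in cation-adjusted Mueller-Hinton broth, and susceptibility was determined by CLSI broth micro-dilution, with each test run in biological triplicate.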

A. baumannii AR 0273 = test: microbe, parasite or virus in culture; type: cell-based
Procedure, shortened: as §4

A. baumannii AR 0299 = test: microbe, parasite or virus in culture; type: cell-based
Procedure, shortened: as §4

A. baumannii AR 0313 = test: microbe, parasite or virus in culture; type: cell-based
Procedure, shortened: as §4

E. coli AR 0048 = test: microbe, parasite or virus in culture; type: cell-based
Procedure, shortened: as §4

E. coli AR 0085 = test: microbe, parasite or virus in culture; type: cell-based
Procedure, shortened: as §4

K. pneumoniae AR 0066 = test: microbe, parasite or virus in culture; type: cell-based
Procedure, shortened: as §4

K. pneumoniae AR 0113 = test: microbe, parasite or virus in culture; type: cell-based
Procedure, shortened: as §4

K. pneumoniae AR 0560 = test: microbe, parasite or virus in culture; type: cell-based
Procedure, shortened: as §4

[3] = test system: two E. coli, four K. pneumoneia, and four A. baumannii strains; test: MIC against Gram-negative clinical isolate challenge panel (ten isolates); type: cell-based
Description: The compounds synthesized, shown in Table 1, were evaluated against Gram-positive and Gram-negative reference strains (S. aureus 29213 and E. coli MG1655, respectively), as well as an efflux deficient E. coli strain (ΔtolC, JW5503).
Antimicrobial susceptibility tests. Susceptibility testing was performed in biological triplicate, using the micro-dilution broth method as outlined by the Clinical and Laboratory Standards Institute. Bacteria were cultured with cation-adjusted Muller-Hinton broth (Sigma-Aldrich, Cat# 90922) in round-bottom 96-well plates (Corning, Cat# 3788). Human serum (pooled gender, 0.2 μm filtered) was purchased from BioIVT (Hicksville, NY).

[4] = Maximal tolerated dose (MTD) in mice
Description: Mouse MTD of Debio-1452-NH3. The protocol was approved by the IACUC at the University of Illinois at Urbana-Champaign (Protocol Number:16144). In these studies, 10- to 12-week-old female C57BL/6 mice purchased from Charles River were used. The maximum tolerate dose (MTD) of single compound was determined first. Debio-1452 amine analogues were formulated in 20% sulfobutyl ether β-cyclodextrin in sterile water. Debio-1452-NH3 (1), and compounds 2 and 3 were given by IP injection and mice were monitored for signs of toxicity for 2 weeks (single dose). For multiple dose, the compound was given by daily IP for 5 consecutive days and mice were monitored for signs of toxicity for 1 month. MTD was the highest dosage with acceptable toxicity (e.g. <20% weight loss). Single dose MTDs were initially determined. […] The MTD of Debio-1452-NH3 (1) was used to inform the dosing schedule used in subsequent efficacy studies.

IMR90 = test: Toxicity screen against mammalian cell lines (72 h), Alamar Blue; type: cell-based
Description: Cell culture. IMR90 cells were obtained from ATCC. IMR90 cells were grown in EMEM with 10% fetal bovine serum (Gemini Benchmark, Cat# 100-106), 100 U/mL penicillin, and 100 μg/mL streptomycin. All cells were cultured at 37° C. in a 5% CO2 environment. Media was prepared by the Univeristy of Illinois School of Chemical Sciences Cell Media Facility. Sex and age of cell lines: IMR90 ([…]).
Cell viability. Cells seeded (IMR90: 5,000 cells/well) a 96-well plate (Greiner Bio-One, Cat# 655180) and were allowed to attach overnight. […] Raptinal (100 μM) was used as a dead control. After 24 h post-treatment, media was exchanged with compound-free media. […] Stock Alamar Blue solution [10 μL, 440 μM resazurin (Sigma-Aldrich, Cat# R7017) in sterile 1×PBS] was added to each well, and plate was incubated […]. Conversion of Alamar Blue was measured with plate reader (SpectraMax M3, Molecular Devices) by fluorescence (ex 555 nm, em 585 nm, cutoff 570 nm, autogain). Percent death was determined by normalizing to DMSO-treated cells and raptinal-treated cells.

Hep G2 = test: Toxicity screen against mammalian cell lines (72 h); type: cell-based
[5] = female, C57BL/6, mouse, in vivo

Chain of A. baumannii FabI (D0CAD5 1-288): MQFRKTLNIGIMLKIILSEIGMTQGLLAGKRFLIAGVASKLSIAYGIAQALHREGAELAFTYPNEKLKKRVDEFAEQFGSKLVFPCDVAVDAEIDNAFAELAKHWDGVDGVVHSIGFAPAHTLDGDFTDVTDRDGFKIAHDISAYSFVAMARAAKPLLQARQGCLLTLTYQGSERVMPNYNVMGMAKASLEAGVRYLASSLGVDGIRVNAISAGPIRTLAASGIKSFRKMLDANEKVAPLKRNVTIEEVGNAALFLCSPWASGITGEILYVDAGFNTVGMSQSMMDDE
Chain of E. coli FabI (P0AEK4 whole entry): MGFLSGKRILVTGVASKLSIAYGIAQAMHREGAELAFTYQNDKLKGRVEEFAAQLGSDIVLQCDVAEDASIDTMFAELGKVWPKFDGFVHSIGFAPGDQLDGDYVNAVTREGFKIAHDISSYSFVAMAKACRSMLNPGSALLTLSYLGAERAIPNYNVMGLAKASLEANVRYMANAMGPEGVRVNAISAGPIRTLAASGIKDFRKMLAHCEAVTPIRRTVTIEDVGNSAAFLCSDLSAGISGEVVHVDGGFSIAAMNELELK
Chain of HERG (Q12809 whole entry): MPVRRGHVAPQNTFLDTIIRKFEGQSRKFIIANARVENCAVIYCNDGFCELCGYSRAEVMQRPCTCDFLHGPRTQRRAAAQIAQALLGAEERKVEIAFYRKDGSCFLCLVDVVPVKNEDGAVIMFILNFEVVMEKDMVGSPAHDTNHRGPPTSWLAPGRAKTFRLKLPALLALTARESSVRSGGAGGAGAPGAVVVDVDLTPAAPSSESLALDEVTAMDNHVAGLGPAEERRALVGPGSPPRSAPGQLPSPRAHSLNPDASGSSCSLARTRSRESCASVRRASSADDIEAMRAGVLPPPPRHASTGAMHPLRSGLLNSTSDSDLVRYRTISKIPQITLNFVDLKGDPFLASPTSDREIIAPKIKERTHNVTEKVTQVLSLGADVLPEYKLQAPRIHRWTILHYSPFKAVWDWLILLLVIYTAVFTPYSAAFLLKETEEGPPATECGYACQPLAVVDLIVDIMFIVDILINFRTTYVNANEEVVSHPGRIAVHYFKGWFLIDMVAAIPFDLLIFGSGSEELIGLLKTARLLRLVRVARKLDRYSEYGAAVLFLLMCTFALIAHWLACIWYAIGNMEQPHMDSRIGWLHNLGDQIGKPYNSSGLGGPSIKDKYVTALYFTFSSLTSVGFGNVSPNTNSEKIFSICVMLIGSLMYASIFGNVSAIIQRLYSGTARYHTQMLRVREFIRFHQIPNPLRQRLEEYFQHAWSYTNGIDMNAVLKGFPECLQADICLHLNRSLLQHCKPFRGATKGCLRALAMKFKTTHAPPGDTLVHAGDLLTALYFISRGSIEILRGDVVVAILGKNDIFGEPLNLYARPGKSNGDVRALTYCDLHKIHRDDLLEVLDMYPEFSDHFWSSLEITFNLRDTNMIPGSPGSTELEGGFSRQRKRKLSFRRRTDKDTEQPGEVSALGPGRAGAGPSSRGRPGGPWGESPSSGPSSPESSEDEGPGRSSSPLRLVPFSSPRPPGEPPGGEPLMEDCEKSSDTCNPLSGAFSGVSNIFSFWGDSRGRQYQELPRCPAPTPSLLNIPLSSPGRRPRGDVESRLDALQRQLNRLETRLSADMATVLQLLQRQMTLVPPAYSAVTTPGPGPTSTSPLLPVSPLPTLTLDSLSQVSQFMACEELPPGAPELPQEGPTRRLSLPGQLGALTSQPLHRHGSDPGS

Compound: Cc1c(CN(C)C(=O)/C=C/c2cnc3c(c2)CC(N)C(=O)N3)oc2ccccc12 (racemic) [Debio-1452-NH3, (E)-3-(6-amino-7-oxo-5,6,7,8-tetrahydro-1,8-naphthyridin-3-yl)-N-methyl-N-((3-methylbenzofuran-2-yl)methyl)acrylamide]
- Ki (A. baumannii FabI): 0.114 µM
- Ki (E. coli FabI): 0.0035 ± 0.0005 µM
- inhibition at 30 µM (H. sapiens HFF-1): 11 ± 2%
- IC50 (H. sapiens HFF-1; cytotoxicity): 63 ± 33 µM
- inhibition at 30 µM (H. sapiens A549): 29 ± 4%
- IC50 (H. sapiens A549; cytotoxicity): 68 ± 4 µM
- IC50 (HERG): 5.7 µM
- fraction unbound (Plasma protein binding [1]): 0.055
- fraction unbound (Plasma protein binding [2]): 0.107

Compound: Cc1c(CN(C)C(=O)/C=C/c2cnc3c(c2)CCC(N)C(=O)N3)oc2ccccc12 (racemic) [(±)-11]
- MIC S. aureus 29213 (S. aureus ATCC 29213): 0.016 µg/mL (≈ 0.0396 µM)
- MIC E. coli ΔtolC (E. coli ΔtolC (JW5503)): 0.031 µg/mL (≈ 0.0766 µM)
- MIC E. coli MG1655 (E. coli MG1655; E. coli MG1655): 4 µg/mL (≈ 9.89 µM)
- MIC K. pneumoniae BAA 2472 (K. pneumoniae BAA 2472; clinical isolate): 8 µg/mL (≈ 19.8 µM)
- MIC A. baumannii AR 0033 (A. baumannii AR 0033; clinical isolate): 4 µg/mL (≈ 9.89 µM)
- MIC A. baumannii AR 0273 (A. baumannii AR 0273; clinical isolate): 8 µg/mL (≈ 19.8 µM)
- MIC A. baumannii AR 0299 (A. baumannii AR 0299; clinical isolate): 4 µg/mL (≈ 9.89 µM)
- MIC A. baumannii AR 0313 (A. baumannii AR 0313; clinical isolate): 8 µg/mL (≈ 19.8 µM)
- MIC E. coli AR 0048 (E. coli AR 0048; clinical isolate): 4 µg/mL (≈ 9.89 µM)
- MIC E. coli AR 0085 (E. coli AR 0085; clinical isolate): 4 µg/mL (≈ 9.89 µM)
- MIC K. pneumoniae AR 0066 (K. pneumoniae AR 0066; clinical isolate): 8 µg/mL (≈ 19.8 µM)
- MIC K. pneumoniae AR 0113 (K. pneumoniae AR 0113; clinical isolate): 8 µg/mL (≈ 19.8 µM)
- MIC K. pneumoniae AR 0560 (K. pneumoniae AR 0560; clinical isolate): 8 µg/mL (≈ 19.8 µM)
- concentration at which all strains of the clinical isolate challenge panel are inhibited [3]: ≤ 8 µg/mL

Compound: Cc1c(CN(C)C(=O)/C=C/c2cnc3c(c2)CC(N)C(=O)N3)oc2ccccc12.Cl (stereo not drawn) [Debio-1452-NH3, (E)-3-(6-amino-7-oxo-5,6,7,8-tetrahydro-1,8-naphthyridin-3-yl)-N-methyl-N-((3-methylbenzofuran-2-yl)methyl)acrylamide, reference compound]
- MIC (S. aureus ATCC 29213; Staphylococcus aureus, ATCC29213, read-out: MIC S. aureus 29213): 0.031 µg/mL
- MIC E. coli ΔtolC (E. coli ΔtolC (JW5503)): 0.062 µg/mL
- MIC (E. coli MG1655; Escherichia coli, MG1655): 4 µg/mL
- MIC (K. pneumoniae BAA 2472; Klebsiella pneumoniae, BAA2472, read-out: MIC K. pneumoniae BAA 2472, clinical isolate): 16 µg/mL
- MIC (A. baumannii AR 0033; Acinetobacter baumannii, AR0033, read-out: MIC A. baumannii AR 0033, clinical isolate): 32 µg/mL
- MIC (A. baumannii AR 0273; Acinetobacter baumannii, AR0273, read-out: MIC A. baumannii AR 0273, clinical isolate): 32 µg/mL
- MIC (A. baumannii AR 0299; Acinetobacter baumannii, AR0299, read-out: MIC A. baumannii AR 0299, clinical isolate): 32 µg/mL
- MIC (A. baumannii AR 0313; Acinetobacter baumannii, AR0313, read-out: MIC A. baumannii AR 0313, clinical isolate): 32 µg/mL
- MIC (E. coli AR 0048; Escherichia coli, AR0048, read-out: MIC E. coli AR 0048, clinical isolate): 32 µg/mL
- MIC (E. coli AR 0085; Escherichia coli, AR0085, read-out: MIC E. coli AR 0085, clinical isolate): 16 µg/mL
- MIC (K. pneumoniae AR 0066; Klebsiella pneumoniae, AR0066, read-out: MIC K. pneumoniae AR 0066, clinical isolate): 32 µg/mL
- MIC (K. pneumoniae AR 0113; Klebsiella pneumoniae, AR0113, read-out: MIC K. pneumoniae AR 0113, clinical isolate): 32 µg/mL
- MIC (K. pneumoniae AR 0560; Klebsiella pneumoniae, AR0560, read-out: MIC K. pneumoniae AR 0560, clinical isolate): 32 µg/mL
- well tolerated daily dosing for 5 consecutive days ([4]; daily IP, 5 consecutive days, female C57BL/6 mice): 50 mg/kg
- MTD at 2 weeks [4, 5]: 50 mg/kg
- MTD at 5 d [4, 5]: 50 mg/kg
- Multi-day single-dose MTD ([4]; female, C57BL/6, mouse, in vivo, 5 d): 50 mg/kg, 5 d
- MTD at 2 weeks ([4]; female, C57BL/6, mouse, in vivo, ip): 50 mg/kg
- IMR90 % Cell Death (IMR90; 30 μM): 18 ± 4%
- IMR90 % Cell Death (IMR90; 100 μM): 69 ± 5%
- Hep G2 % Cell Death (Hep G2; 30 μM): 29 ± 8%
- Hep G2 % Cell Death (Hep G2; 100 μM): 77 ± 3%
